Legend:
[1] = biological target: T1, Purine nucleoside phosphorylase (Bos taurus, UniProt P55859); test: Inhibition of purine nucleoside phosphorylase from calf spleen in 50 mM phosphate
T1 sequence (P55859 whole entry): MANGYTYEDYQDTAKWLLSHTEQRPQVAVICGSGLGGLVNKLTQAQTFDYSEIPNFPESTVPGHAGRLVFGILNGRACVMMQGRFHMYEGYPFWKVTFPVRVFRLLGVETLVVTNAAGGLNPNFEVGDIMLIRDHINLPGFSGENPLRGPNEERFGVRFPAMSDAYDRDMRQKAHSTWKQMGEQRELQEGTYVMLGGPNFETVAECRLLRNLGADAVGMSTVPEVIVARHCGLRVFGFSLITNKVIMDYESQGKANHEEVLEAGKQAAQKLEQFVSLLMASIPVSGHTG

[2] = biological target: T1, Purine nucleoside phosphorylase; test: biochemical
Description: In vitro inhibition of purine nucleoside phosphorylase from calf spleen in 1 mM phosphate

Question: How did the IC50 [1] turn out when `Nc1nc(O)c2[nH]cc(C3CCCCC3)c2n1` was run?
Answer: Its IC50 is 150000 nM.

Question: `Nc1nc(O)c2[nH]cc(CC3CCCSS3)c2n1` (centres undefined) was tested. Which IC50 [1] did it give?
Answer: The IC50 was 200 nM.

Question: How did the IC50 [1] turn out when `Nc1nc2c(CC3CCCO3)c[nH]c2c(=O)[nH]1` (centres undefined) was run?
Answer: Its IC50 is 300 nM.

Question: What about the IC50 [2] of the same compound?
Answer: Its IC50 is 70 nM.

Question: `Nc1nc(O)c2[nH]cc(C3=CCCCC3)c2n1` was tested. Which IC50 [1] did it give?
Answer: Its IC50 is 19000 nM.

Question: What about the IC50 [2] of the same compound?
Answer: The IC50 was 1900 nM.

Question: For `Nc1nc2c(CC3CCCNC3)c[nH]c2c(=O)[nH]1` (centres undefined), which IC50 [1] is on record?
Answer: The IC50 was 1000 nM.

Question: And the IC50 [2]?
Answer: Its IC50 is 1000 nM.

Question: How did the IC50 [1] turn out when `Nc1nc2c(CC3CCCCCC3)c[nH]c2c(=O)[nH]1` was run?
Answer: Its IC50 is 860 nM.

Question: For `Nc1nc(O)c2[nH]c(N)c(CC3CCCCC3)c2n1`, which IC50 [1] is on record?
Answer: Its IC50 is 150000 nM.

Question: What about the IC50 [2] of the same compound?
Answer: Its IC50 is 6600 nM.

Question: What does the source list for `Nc1nc2c(CC3CCCS3)c[nH]c2c(=O)[nH]1` (centres undefined)?
Answer: IC50 [1]: 220 nM; IC50 [2]: 11 nM

Question: `CC1CCCC(Cc2c[nH]c3c(=O)[nH]c(N)nc23)C1` (centres undefined) was tested. Which IC50 [1] did it give?
Answer: The IC50 was 820 nM.
